# Source: patent publication US20240384268A1, “Oligonucleotides” (Hudson Institute of Medical Research, priority 2021, published 2024)
# In the oligonucleotide strings, read from the 5' end, every base follows the letter of its sugar. An asterisk marks phosphorothioate; unmarked linkages are phosphodiester. Other units and linkages are bracketed, terminal groups are in braces. A string of capitals states the bases alone. d = 2'-deoxy (DNA); m = 2'-O-methyl
# What was measured:
# Type in all cases: cell-based
# TLR8 = molecular target: T1, TLR8 (Homo sapiens, UniProt Q9NR97); experiment: HEK-TLR8 NF-κB-luciferase reporter, R848 or Motolimod stimulation (potentiation or inhibition); set-up: expressed in transfected cells; host or cells: 293XLhTLR8 (HEK293); conditions: HEK-TLR8; 500 nM ASO ~30 min; R848 overnight
# T1 sequence (Q9NR97 27-1041): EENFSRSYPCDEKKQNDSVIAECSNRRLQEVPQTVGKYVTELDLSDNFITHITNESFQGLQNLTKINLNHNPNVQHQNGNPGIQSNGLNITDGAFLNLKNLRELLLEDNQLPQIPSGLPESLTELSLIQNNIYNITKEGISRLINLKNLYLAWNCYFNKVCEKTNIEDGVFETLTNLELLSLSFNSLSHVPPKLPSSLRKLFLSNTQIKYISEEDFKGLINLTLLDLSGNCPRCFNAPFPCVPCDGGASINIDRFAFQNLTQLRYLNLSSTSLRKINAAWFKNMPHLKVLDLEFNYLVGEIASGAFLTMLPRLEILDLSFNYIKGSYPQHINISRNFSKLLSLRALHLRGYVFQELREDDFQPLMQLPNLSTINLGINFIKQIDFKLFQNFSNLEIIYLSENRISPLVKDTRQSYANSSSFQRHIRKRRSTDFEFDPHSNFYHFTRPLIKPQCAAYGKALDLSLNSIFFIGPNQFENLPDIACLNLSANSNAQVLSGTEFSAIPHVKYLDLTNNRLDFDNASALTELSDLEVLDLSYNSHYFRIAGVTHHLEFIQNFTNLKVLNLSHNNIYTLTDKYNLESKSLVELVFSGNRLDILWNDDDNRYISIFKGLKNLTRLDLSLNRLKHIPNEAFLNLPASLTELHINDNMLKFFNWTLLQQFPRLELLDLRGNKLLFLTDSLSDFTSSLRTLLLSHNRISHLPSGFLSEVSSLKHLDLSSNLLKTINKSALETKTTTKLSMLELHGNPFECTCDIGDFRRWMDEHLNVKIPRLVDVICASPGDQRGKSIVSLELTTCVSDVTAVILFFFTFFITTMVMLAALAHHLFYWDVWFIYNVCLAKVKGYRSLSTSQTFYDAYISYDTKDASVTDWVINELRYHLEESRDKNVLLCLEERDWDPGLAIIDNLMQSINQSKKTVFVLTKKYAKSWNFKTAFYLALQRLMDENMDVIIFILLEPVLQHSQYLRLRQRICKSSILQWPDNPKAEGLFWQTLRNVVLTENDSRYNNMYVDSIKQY
# Experimental: (§1) In such examples, potentiation of TLR8 activity can be identified by observation of an overall increased TLR8 response of the cell population, or a higher proportion of cells having TLR8-positive activity as compared to a negative control condition in which cells are treated with TLR8 agonist in the absence of the oligonucleotide (or in the presence of an appropriate control non-potentiating agent). In one example, 293XLhTLR8 (referred to as HEK-TLR8) cells are transfected with pNF-κB-Luc4 reporter, incubated with an oligonucleotide, and then stimulated with R848. TLR8 activity can be determined by a luciferase assay, which measures activated NF-κB by luminescence. TLR8 activity can also be analysed by measuring cytokine levels, for example by ELISA.
# as §1, with “inhibition” for “potentiation”, “decreased” for “increased”, “lower” for “higher”, “positive” for “negative”, “inhibitory” for “non-potentiating”
# (§2) For cGAS stimulations, cells were treated for indicated duration with ASOs, prior to transfection with ISD70 (human cells) or ISD45 (mouse cells) (the ASOs were not washed off prior to ISD transfection unless otherwise indicated). The cGAS ligands ISD45 (Stetson and Medzhitov, 2006) and ISD70 (also known as VACV-70 (Unterholzner et al., 2010)) (Table 1) were resuspended as follows: 5 1d of sense and 5 μl of antisense strands at 10 μg/μl were added to 90 μl PBS under sterile conditions, heated at 75° C. for 30 min, prior to letting cool down at room temperature and aliquoting (stock at 1 μg/1 l). The ISDs were transfected at a concentration of […] at a ratio of 1 μg:1 μl with Lipofectamine 2000 in Opti-MEM (Thermo Fisher Scientific). HEK-TLR3, HEK-TLR7 and […] were treated with indicated concentration of ASOs for 20-50 min, prior to stimulation with poly(I:C) (Invivogen), R848 (Invivogen), Motolimod (MedChemExpress) and the Class B CpG oligonucleotides ODN 2006 (synthesised by IDT and resuspended in RNase-free TE buffer [Table 1]), respectively. The TLR2/1 agonist PAM3CSK4 (Invivogen), the TLR4 agonist lipopolysaccharide (Invivogen), the Class B CpG oligonucleotides ODN 1826 (synthesised by IDT and resuspended in RNase-free TE buffer), the mouse Sting agonist DMXAA (Cayman) and the human STING agonist (compound #3 from (Raanjulu et al., 2018), referred to as GSK herein—kind gift from Cancer Therapeutics CRC, Australia) were used at indicated concentrations. Aspirin (Sigma—A2093) was resuspended in pure medium to 10 mM, filter sterilised and added to the cells at 2 mM final. All ASOs were synthesised by Integrated DNA Technologies (IDT), and resuspended in RNase-free TE buffer, pH 8.0 (Thermo Fisher Scientific). Cell viability was assessed by adding 1× fresh resazurin solution to the wells (10λ solution made up with 7 mg resazurin [Sigma—R7017] dissolved in 3.5 ml PBS, sterile filtered at […]) for 4 h, prior to reading at with a Fluostar OPTIMA (BMG LABTECH) plate-reader (fluorescence: Excitation 535 nm, Emission 590); wells with medium only and 1× resazurin were used as blanks.
# cGAS = cGAS (Homo sapiens, UniProt Q8N884); experiment: ISD70-driven IP-10 (and IFN-β) production in THP-1 cells, ELISA; set-up: endogenous in cells; host or cells: THP-1 (undifferentiated); conditions: THP-1; 2′OMe or PS oligos, 100-250 nM, pre-treatment as in figure legends; ISD70 2.5 μg/ml
# Sequence of cGAS (Q8N884 whole entry): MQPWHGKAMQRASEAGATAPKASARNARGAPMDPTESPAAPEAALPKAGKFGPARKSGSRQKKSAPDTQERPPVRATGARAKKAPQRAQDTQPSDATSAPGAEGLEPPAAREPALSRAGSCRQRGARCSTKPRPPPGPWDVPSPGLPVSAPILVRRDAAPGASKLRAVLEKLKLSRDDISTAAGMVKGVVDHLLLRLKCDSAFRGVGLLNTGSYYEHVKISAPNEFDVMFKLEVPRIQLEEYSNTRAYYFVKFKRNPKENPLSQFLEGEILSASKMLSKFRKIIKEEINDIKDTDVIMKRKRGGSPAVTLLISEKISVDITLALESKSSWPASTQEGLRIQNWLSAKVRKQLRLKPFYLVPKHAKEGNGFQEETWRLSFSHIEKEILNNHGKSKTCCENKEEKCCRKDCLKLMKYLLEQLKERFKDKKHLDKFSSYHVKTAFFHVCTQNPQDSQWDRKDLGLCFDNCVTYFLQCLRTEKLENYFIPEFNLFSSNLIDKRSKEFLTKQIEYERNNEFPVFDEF
# Experimental: The ability of an oligonucleotide to inhibit cGAS activity can, for example, be analysed by incubating cells which express cGAS with an oligonucleotide, then stimulating said cells with a cGAS agonist (e.g., 70-bp interferon stimulating DNA or ISD70; 45-bp interferon stimulating DNA or ISD45), and analysing the overall cGAS response in the cell population, or analysing the proportion of cells having cGAS-positive activity after a defined period of time.
# In such examples, inhibition of cGAS activity can be identified by observation of an overall decreased cGAS response of the cell population, or a lower proportion of cells having cGAS-positive activity as compared to positive control condition in which cells are treated with cGAS agonist in the absence of the oligonucleotide (or in the presence of an appropriate control inhibitory agent). In one example, THP-1 or HT-29 cells are transfected with ISD70 and incubated with an oligonucleotide. cGAS activity can then be determined by cytokine (e.g., IP-10 and/or IFNβ) expression (e.g., gene and/or protein expression) and/or secretion levels, such as by ELISA. A similar assay can be performed with LL171 cells transfected with ISD45. […] By way of example, cGAS enzymatic activity may be assessed in vitro using recombinant cGAS and then measuring activity thereof by way of a cGAMP ELISA.
# as §2
# human TLR9 = molecular target: T2, human TLR9 (Homo sapiens, UniProt Q9NR96); experiment: HEK-TLR9 NF-κB-luciferase reporter, ODN2006 stimulation; conditions: HEK-TLR9; 500 nM 2′OMe or PS oligos; 200 nM ODN2006
# T2 construct: HA; host or cells: 293XL-hTLR9-HA (HEK293)
# T2 sequence (Q9NR96 26-1032): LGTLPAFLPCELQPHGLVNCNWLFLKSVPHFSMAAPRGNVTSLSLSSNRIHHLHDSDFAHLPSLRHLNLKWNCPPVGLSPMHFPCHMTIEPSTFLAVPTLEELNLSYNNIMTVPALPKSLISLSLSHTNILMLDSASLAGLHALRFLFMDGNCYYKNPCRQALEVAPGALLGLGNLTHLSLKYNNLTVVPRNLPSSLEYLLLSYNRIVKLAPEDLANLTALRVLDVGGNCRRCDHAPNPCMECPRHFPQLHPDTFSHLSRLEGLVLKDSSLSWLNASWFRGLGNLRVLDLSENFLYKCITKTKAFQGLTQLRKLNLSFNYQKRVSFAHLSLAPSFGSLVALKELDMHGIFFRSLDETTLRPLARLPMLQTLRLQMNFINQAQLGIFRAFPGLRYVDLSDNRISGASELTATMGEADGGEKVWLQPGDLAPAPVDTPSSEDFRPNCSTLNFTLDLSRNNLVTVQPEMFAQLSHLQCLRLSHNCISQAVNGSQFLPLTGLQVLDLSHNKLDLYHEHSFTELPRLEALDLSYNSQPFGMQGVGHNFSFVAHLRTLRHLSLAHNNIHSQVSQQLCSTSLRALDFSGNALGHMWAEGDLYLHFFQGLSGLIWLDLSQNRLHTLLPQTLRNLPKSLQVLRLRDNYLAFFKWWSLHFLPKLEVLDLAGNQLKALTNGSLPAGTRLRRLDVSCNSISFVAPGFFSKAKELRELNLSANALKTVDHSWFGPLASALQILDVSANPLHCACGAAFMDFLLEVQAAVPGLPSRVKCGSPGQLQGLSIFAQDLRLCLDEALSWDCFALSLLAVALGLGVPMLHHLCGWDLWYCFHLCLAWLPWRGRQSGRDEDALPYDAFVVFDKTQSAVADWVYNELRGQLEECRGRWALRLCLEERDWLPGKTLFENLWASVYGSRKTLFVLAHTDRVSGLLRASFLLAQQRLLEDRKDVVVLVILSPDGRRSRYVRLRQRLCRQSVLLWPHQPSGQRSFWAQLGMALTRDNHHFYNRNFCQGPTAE
# Experimental: In such examples, inhibition of TLR9 activity can be identified by observation of an overall decreased TLR9 response of the cell population, or a lower proportion of cells having TLR9-positive activity as compared to positive control condition in which cells are treated with TLR9 agonist in the absence of the oligonucleotide (or in the presence of an appropriate control inhibitory agent). In one example, HEK cells are transfected with TLR9 and a NF-κB reporter and incubated with an oligonucleotide and then stimulated with a TLR9 agonist. TLR9 activity can then be determined by a luciferase assay. TLR9 activity can also be analysed by measuring cytokine levels (e.g., IFN, IL-6, TNF and IL-12), for example by ELISA.
# as §2
# Following transfection, the cells were collected from the 6-wells and aliquoted into 96-wells, just before ASO and overnight TLR stimulation (as above described). Similarly, the LL171 cells expressing and ISRE-Luc reporter were treated overnight. The next day, the cells were lysed in 40 μl (for a 96-well plate) of 1× Glo Lysis buffer (Promega) for 10 min at room temperature. […] was then subjected to firefly luciferase assay using 40 μl of Luciferase Assay Reagent (Promega). Luminescence was quantified with a Fluostar OPTIMA (BMG LABTECH) luminometer.
Substance,inhibition of ISD70-driven IP-10 production (in words) (cGAS),inhibition of TLR9 sensing of ODN2006 (in words) (human TLR9),other results
"mC*mU*mU*mC*mG*T*G*G*G*G*T*C*C*T*T*mU*mU*mC*mA*mC (CUUCGTGGGGTCCTTUUCAC; antisense; sugars from the 5' end m5 d10 m5, all phosphorothioate, methylation of C not given here) [[HPRT]660]",–,–,"TLR8 potentiation of R848 sensing, 20-mer ASOs (in words) (TLR8): strong potentiator of TLR8 sensing"
mG*mC*mG*mG*mU*A*T*C*C*A*T*C*A*G*A*mU*mA*mU*mC*mG (mG*mC*mG*mG*mU*dA*dT*dC*dC*dA*dT*dC*dA*dG*dA*mU*mA*mU*mC*mG; antisense) [C2-ASO2-B],significantly less inhibitory than C2-ASO2-A,–,–
"mGmCmGmGmUmAmUmCmCmAmUmGmUmCmCmCmAmGmGmC (GCGGUAUCCAUGUCCCAGGC; all 2'-O-methyl, backbone not given here) [fully 2′Ome modified version of C2Mut1]",strongly blunting of cGAS activation,–,–
"mU*mC*mC*mG*mG*G*T*C*G*T*A*G*T*T*G*mC*mU*mU*mC*mC (UCCGGGTCGTAGTTGCUUCC; antisense; sugars from the 5' end m5 d10 m5, all phosphorothioate, methylation of C not given here) [ASO11Mut2]",–,conferred significant TLR9 inhibition,–
mU*mU*mC*mU*mG*G*G*G*A*C*T*T*C*C*A*mG*mU*mU*mU*mA (mU*mU*mC*mU*mG*dG*dG*dG*dA*dC*dT*dT*dC*dC*dA*mG*mU*mU*mU*mA; antisense) [ASO9],–,significantly inhibited TLR9 sensing of ODN2006,–
